# Experimental data as given in PubChem BioAssay AID1918995 (Molecular Pharmacology Branch, DTP, NCI, 2023).
# Test system: 324938-238-R-J1-PDC complex spheroid growth, % test/control
# Experiment: Anticancer human tumor 324938-238-R-J1-PDC patient-derived bladder carcinoma cell line growth inhibition [AhR]
# Conditions: for IC50: curve of first compound; for viability, T/C: stronger effect = lower value
# From the text: Multicellular complex tumor spheroid response to aryl hydrocarbon receptor antagonists in combination with a variety of drugs and investigational agents in selected tumor cell lines
# The current study was undertaken to assess response to aryl hydrocarbon receptor antagonists in combination with standard-of-care drugs and investigational agents in solid tumor complex spheroid models. Complex spheroids include a stromal component modeled by human endothelial cells (HUVEC) and fibroblasts modeled by human mesenchymal stem cells (MSCs). The concentration ranges selected for each drug and investigational agent were based upon clinically achievable concentrations if the clinical Cmax of the agent was known.
# Compounds. The drugs and investigational agents: BAY 2416964 (NSC825713), GNF351 (NSC835774), CH-223191 (NSC835775), CPI-455 (NSC825282), aza-TdCyd (NSC777586), decitabine (NSC127716), belinostat (NSC758774), entinostat (NSC756642), pevonedistat (NSC761192), tazemetostat (NSC777109), talazoparib (NSC765396), olaparib (NSC753686), selinexor (NSC780203), nedisertib (M3814, NSC802822), bortezomib (NSC756655), venetoclax (NSC766270), doxorubicin (NSC123127), elimusertib (BAY189344, NSC800525), ceralasertib (AZD6738, NSC777638), TAK-243 (NSC785004), alisertib (NSC759677), etoposide (NSC141540), topotecan (NSC609699), eribulin (NSC707389), gemcitabine (NSC613327), carboplatin (NSC241240), cisplatin (NSC119875), and SN-38 (NSC673596) were obtained from the National Cancer Institute (NCI) Developmental Therapeutics Program Chemical Repository (32). The FDA-approved anticancer drug set is available from the Developmental Therapeutics Program at https://dtp.cancer.gov/organization/dscb/obtaining/available plates.htm. […] The stock solutions were prepared in dimethyl sulfoxide (DMSO, Sigma-Aldrich, St. Louis, MO, cat. D2650), except for the platinum compounds which were prepared in saline (Quality Biological, Gaithersburg, MD, cat. 114-055-101), at 800-fold the tested concentration and stored at -70 degrees C prior to their use. All drugs and investigational agents were tested over a range starting from a high concentration at or near the clinical Cmax and decreasing in half-log increments. If the clinical Cmax for an agent had not been determined, the highest concentration tested was 10 microM (Table 1).
# Cell Culture. All cells were maintained in an incubator at 37 degrees C and 5% CO2 with 95% humidity. The PDC lines were cultured according to standard operating procedures established by the NCI PDMR (https://pdmr.cancer.gov). Briefly, all PDCs were thawed and cultured in Matrigel-coated flasks prepared with a working solution of 1X Ham's F-12 nutrient mix, without supplementation (Invitrogen, Waltham, MA, cat. 11765054), 100 U/mL penicillin-streptomycin (Invitrogen, cat. 15140122), and 2.5% Matrigel (Corning Inc., Corning, NY, cat. 354248) for the first three passages. All PDCs were cultured in complete DMEM/F-12 media containing advanced DMEM/F-12 (Invitrogen, cat. 12634028), 4.9% defined fetal bovine serum, heat inactivated (HyClone Laboratories Inc., Logan, UT, cat. SH30070.03HI), 389 ng/mL hydrocortisone (Sigma-Aldrich, cat. H4001), 9.7 ng/mL human EGF recombinant protein (Invitrogen, cat. PHG0313), 23.4 microg/mL adenine (Sigma-Aldrich, cat. A2786), 97.3 U/mL penicillin-streptomycin (Invitrogen, cat. 15140122), 1.9 mM L-glutamine (Invitrogen, cat. 25030081), and 9.7 microM Y-27632 dihydrochloride (Tocris Bioscience, Bristol, United Kingdom, cat. 1254). The PDCs were cultured in complete DMEM/F12 media without 10 microM Y-27632 dihydrochloride for at least two passages prior to the screen. The established cell lines NCI-H1341 and […] were cultured in DMEM/F-12, HEPES (Invitrogen, cat. 11330032), 5% defined fetal bovine serum (HyClone Laboratories Inc., cat. SH30070.03), ITS premix universal culture supplement [insulin (5 microg/mL), transferrin (5 microg/mL), and selenious acid (5 ng/mL)] […]
# [1] = second compound 0.1 µM, first compound 0.0316 µM
# [2] = second compound 0.1 µM, first compound 0.1 µM
# [3] = second compound 0.1 µM, first compound 0.316 µM
# [4] = second compound 0.1 µM, first compound 1 µM
# [5] = second compound 0.1 µM, first compound 3.16 µM
# [6] = second compound 0.1 µM, first compound 10 µM
# [7] = second compound 0.316 µM, first compound 0.0316 µM
# [8] = second compound 0.316 µM, first compound 0.1 µM
# [9] = second compound 0.316 µM, first compound 0.316 µM
# [10] = second compound 0.316 µM, first compound 1 µM
# [11] = second compound 0.316 µM, first compound 3.16 µM
# [12] = second compound 0.316 µM, first compound 10 µM
# [13] = second compound 1 µM, first compound 0.0316 µM
# [14] = second compound 1 µM, first compound 0.1 µM
# [15] = second compound 1 µM, first compound 0.316 µM
# [16] = second compound 1 µM, first compound 1 µM
# [17] = second compound 1 µM, first compound 3.16 µM
# [18] = second compound 1 µM, first compound 10 µM
# [19] = second compound 3.16 µM, first compound 0.0316 µM
# [20] = second compound 3.16 µM, first compound 0.1 µM
# [21] = second compound 3.16 µM, first compound 0.316 µM
# [22] = second compound 3.16 µM, first compound 1 µM
# [23] = second compound 3.16 µM, first compound 3.16 µM
# [24] = second compound 3.16 µM, first compound 10 µM
# [25] = second compound 10 µM, first compound 0.0316 µM
# [26] = second compound 10 µM, first compound 0.1 µM
# [27] = second compound 10 µM, first compound 0.316 µM
# [28] = second compound 10 µM, first compound 1 µM
# [29] = second compound 10 µM, first compound 3.16 µM
# [30] = second compound 10 µM, first compound 10 µM
# 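Further: spheroids exposed to agents for seven days before viability read.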
SMILES,IC50 (second compound 0.1 µM) [nM],IC50 (second compound 0.316 µM) [nM],IC50 (second compound 1 µM) [nM],IC50 (second compound 3.16 µM) [nM],IC50 (second compound 10 µM) [nM],"viability, T/C [1] [%]","viability, T/C [2] [%]","viability, T/C [3] [%]","viability, T/C [4] [%]","viability, T/C [7] [%]","viability, T/C [8] [%]","viability, T/C [9] [%]","viability, T/C [10] [%]","viability, T/C [13] [%]","viability, T/C [14] [%]","viability, T/C [15] [%]","viability, T/C [16] [%]","viability, T/C [19] [%]","viability, T/C [20] [%]","viability, T/C [21] [%]",other results
COc1cc(C2c3cc4c(cc3C(OC3OC5COC(C)OC5C(O)C3O)C3COC(=O)C23)OCO4)cc(OC)c1O (stereo not given) + CC(CO)NC(=O)c1cc(-c2ccc(Cl)cc2)nn(-c2cnn(C)c2)c1=O,351,427,441,243,171,92.8,96,52.4,30.1,101,90.3,56.9,30.3,95.6,94.9,58.2,30.2,70.6,73.9,43.4,"viability, T/C [5]: 26.8%; viability, T/C [6]: 21.3%; viability, T/C [11]: 28.6%; viability, T/C [12]: 23.4%; viability, T/C [17]: 31.5%; viability, T/C [18]: 21.7%; viability, T/C [22]: 30.8%; viability, T/C [23]: 28.8%; viability, T/C [24]: 22.7%; viability, T/C [25]: 66.7%; viability, T/C [26]: 57%; viability, T/C [27]: 41.2%; viability, T/C [28]: 36.5%; viability, T/C [29]: 32.7%; viability, T/C [30]: 23.9%"
COc1cccc2c1C(=O)c1c(O)c3c(c(O)c1C2=O)CC(O)(C(=O)CO)CC3OC1CC(N)C(O)C(C)O1 (stereo not given) + CC(CO)NC(=O)c1cc(-c2ccc(Cl)cc2)nn(-c2cnn(C)c2)c1=O,< 31.6,< 31.6,< 31.6,< 31.6,< 31.6,33.5,29.2,17.7,2.6,34.6,28.6,16.8,3.87,32.9,30.9,15.5,1.51,31,36.1,19.6,"viability, T/C [5]: 0.09%; viability, T/C [6]: 0.19%; viability, T/C [11]: 0.08%; viability, T/C [12]: 0.19%; viability, T/C [17]: 0.09%; viability, T/C [18]: 0.19%; viability, T/C [22]: 1.04%; viability, T/C [23]: 0.09%; viability, T/C [24]: 0.68%; viability, T/C [25]: 39.8%; viability, T/C [26]: 35.4%; viability, T/C [27]: 16.8%; viability, T/C [28]: 0.25%; viability, T/C [29]: 0.24%; viability, T/C [30]: 0.29%"
Nc1ncn(C2CC(O)C(CO)O2)c(=O)n1 (stereo not given) + CC(CO)NC(=O)c1cc(-c2ccc(Cl)cc2)nn(-c2cnn(C)c2)c1=O,> 1000,> 1000,> 1000,> 1000,> 1000,93.4,73.4,81.7,72.3,97.5,82.9,80.2,64.8,82.8,72.2,68.3,61.5,64.1,60.4,64.4,"viability, T/C (second compound 0.1 µM, first compound 0.00316 µM): 98.5%; viability, T/C (second compound 0.1 µM, first compound 0.01 µM): 97.5%; viability, T/C (second compound 0.316 µM, first compound 0.00316 µM): 98.4%; viability, T/C (second compound 0.316 µM, first compound 0.01 µM): 102%; viability, T/C (second compound 1 µM, first compound 0.00316 µM): 85.9%; viability, T/C (second compound 1 µM, first compound 0.01 µM): 91.3%; viability, T/C (second compound 3.16 µM, first compound 0.00316 µM): 72.4%; viability, T/C (second compound 3.16 µM, first compound 0.01 µM): 72.5%; viability, T/C [22]: 57.6%; viability, T/C (second compound 10 µM, first compound 0.00316 µM): 61.4%; viability, T/C (second compound 10 µM, first compound 0.01 µM): 67.9%; viability, T/C [25]: 65.8%; viability, T/C [26]: 55.9%; viability, T/C [27]: 58.3%; viability, T/C [28]: 57.8%"
